Source: PMC2920549, “Bromopyrrole Alkaloids as Lead Compounds against Protozoan Parasites” (Marine Drugs, 2010)
≈ marks a conversion by molar mass, not a printed value. Where “and” joins values, the source holds several entries; their conditions need not be identical. Identical values can stand only once. Like-named read-outs stand apart in the source and are kept apart here. Marks after values point to notes of the source that are not given here.

Key:
[1] = molecular target: T1, PfFabZ (β-hydroxyacyl-ACP dehydratase) (Plasmodium falciparum, UniProt Q965D7); experiment: biochemical
T1 construct: made in house
T1 sequence (Q965D7 19-230): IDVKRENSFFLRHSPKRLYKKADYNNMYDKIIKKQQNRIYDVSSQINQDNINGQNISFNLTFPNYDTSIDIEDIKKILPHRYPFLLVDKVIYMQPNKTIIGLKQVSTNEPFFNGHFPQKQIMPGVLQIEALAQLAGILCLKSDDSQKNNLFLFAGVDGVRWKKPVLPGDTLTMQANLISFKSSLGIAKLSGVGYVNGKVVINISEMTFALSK
Procedure: Expression and purification of the PfFab enzymes as well as the assays were performed as described [29]. […] Measurements were carried out in Nundron Surface sterile 96-well plates, using 20 mM Hepes and 150 mM NaCl at pH 7.4. Compounds were dissolved in DMSO (maximum final concentration 1%). A dilution series of 50 μg/mL to 0.0005 μg/mL of dissolved compounds was measured. For PfFabI, 400 μM NADH (cofactor, Sigma) was added to 2 μg enzyme and reaction started by addition of 300 μM crotonyl-CoA (substrate, Sigma). The change of absorbance of the mixture was recorded spectrophotometrically at 340 nm for 40 minutes. Triclosan was used as a positive control and was analyzed the same way. For PfFabG 400 μM NADPH (cofactor, Fluka) was added to 0.5 μg enzyme and reaction started by addition of 300 μM acetoacetyl-CoA (substrate, Sigma). The change of absorbance of the mixture was recorded spectrophotometrically at 340 nm for 20 minutes. (-)-Epigallocatechin gallate (Sigma) was used as a positive control and was analyzed the same way. For PfFabZ, 600 μM crotonoyl-CoA (substrate, Sigma) was added to 0.5 μg enzyme. The change of absorbance of the mixture was recorded spectrophotometrically at 260 nm for 20 minutes. (−)-Epigallocatechin gallate was used as a positive control. IC50 values were estimated from graphically plotted dose-response curves. […]

[2] = system: T. cruzi Tulahuen strain C2C4 intracellular amastigotes in L6 rat skeletal myoblasts; experiment: Activity against Trypanosoma cruzi (beta-galactosidase/CPRG assay in L6 cells); format: cell-based; details: for IC50: Trypanosoma cruzi, TULAHUEN, L6, 96 h; for IC50 T. cruzi: 96 h
Procedure: Then the substrate CPRG/Nonidet (50 μl) was added to all wells. A color reaction developed within 2–6 h and could be read photometrically at 540 nm. Data were transferred into the graphic programme Softmax Pro (Molecular Devices), which calculated IC50 values. […] Benznidazole was the standard drug used.

[3] = system: P. falciparum K1 strain erythrocytic stages; experiment: Activity against Plasmodium falciparum ([3H]-hypoxanthine incorporation); format: cell-based; details: for IC50: Plasmodium falciparum; for Selectivity index (CC50 L6 / IC50 parasite) for P. falciparum: CC50 L6 cells divided by IC50 P. falciparum; for IC50 P. falciparum: K1 strain
Procedure: (§1) The toxicity on mammalian cells was assessed against L6 cells, a primary cell line derived from rat skeletal myoblasts.
The radioactivity was counted using a Betaplate^TM liquid scintillation counter (Wallac, Zurich, Switzerland). […] IC50 values were calculated from graphically plotted dose-response curves.

[4] = system: T. cruzi Tulahuen strain C2C4 intracellular amastigotes in L6 rat skeletal myoblasts; set-up: method as in PMID 17765547; details: earlier study; cited from earlier work
[5] = system: T. b. rhodesiense STIB 900 bloodstream forms; set-up: method as in PMID 17765547; details: earlier study; cited from earlier work
[6] = system: L. donovani strain MHOM/ET/67/L82 axenic amastigotes; set-up: method as in PMID 17765547; details: earlier study; cited from earlier work
[7] = system: PfFabI (enoyl-ACP reductase); set-up: method as in PMID 17765547; details: previous project; cited from earlier work
[8] = system: P. falciparum K1 strain erythrocytic stages; set-up: method as in PMID 17765547; details: earlier study; cited from earlier work
L6 cells [9] = system: L6 cells; set-up: method as in PMID 17765547; details: earlier study; cited from earlier work
[10] = system: T. b. rhodesiense STIB 900 bloodstream forms; experiment: Activity against Trypanosoma brucei rhodesiense (resazurin assay); format: cell-based; details: for IC50: Trypanosoma brucei, read-out: IC50 T. b. rhodesiense; for IC50 / IC50 T. b. rhodesiense: 72 h; for Selectivity index (CC50 L6 / IC50 parasite) for T. brucei rhodesiense: CC50 L6 cells divided by IC50 T. b. rhodesiense
Procedure: as §1
STIB 900 strain of T. b. rhodesiense and the standard drug melarsoprol were used for the assay. […] Data were analyzed using the microplate reader software Softmax Pro (Molecular Devices Cooperation, Sunnyvale, CA, USA).

[11] = Cytotoxicity against L6-cells (resazurin); format: cell-based, rat; details: rat
Procedure: as §1
(§2) Assays were performed in 96-well microtiter plates, each well containing 100 μL of RPMI 1640 medium supplemented with 1% L-glutamine (200 mM) and 10% fetal bovine serum, and 4 × 10^4 L-6 cells (a primary cell line derived from rat skeletal myoblasts). Serial drug dilutions of seven 3-fold dilution steps covering a range from 90 to 0.123 μg/mL were prepared. After 72 h of incubation the plates were inspected under an inverted microscope to assure growth of the controls and sterile conditions. 10 μl of a resazurin solution (12.5 mg resazurin dissolved in 100 mL distilled water) was then added to each well and the plates incubated for another 2 h. Then the plates were read with a Spectramax Gemini XS microplate fluorometer using an excitation wavelength of 536 nm and an emission wavelength of 588 nm. Data were analyzed using the microplate reader software Softmax Pro. Each CC50 value obtained is the mean of at least two separate experiments performed in duplicate. Podophyllotoxin was the standard drug used.

[12] = system: L. donovani strain MHOM/ET/67/L82 axenic amastigotes; experiment: Activity against Leishmania donovani (axenic amastigotes, resazurin); format: cell-based; details: for IC50: Leishmania donovani, read-out: IC50 L. donovani; for IC50 / IC50 L. donovani: 72 h; for Selectivity index (CC50 L6 / IC50 parasite) for L. donovani: CC50 L6 cells divided by IC50 L. donovani
Procedure: as §1
Amastigotes of L. donovani strain MHOM/ET/67/L82 were grown in axenic culture at 37 °C in SM medium at pH 5.4 supplemented with 10% heat-inactivated fetal bovine serum under an atmosphere of 5% CO2 in air. One hundred μL of culture medium with 10^5 amastigotes from axenic culture with or without a serial drug dilution were seeded in 96-well microtiter plates. […] Data were analyzed using the software Softmax Pro. Decrease of fluorescence (=inhibition) was expressed as percentage of the fluorescence of control cultures and plotted against the drug concentrations. From the sigmoidal inhibition curves the IC50 values were calculated. […] Miltefosine was used as a reference drug.

L6 cells [13] = experiment: Cytotoxicity against L6-cells (resazurin); format: cell-based, rat; details: 72 h
Procedure: as §1, §2

[14] = K1, read-out: IC50 P. falciparum
[15] = K1, K1 strain, erythrocytic stage, read-out: IC50 P. falciparum
[16] = 72 h, read-out: CC50 Cytotoxicity L6 cells

Compound	IC50 [2]	IC50 ([10]; STIB 900 bloodstream forms)	CC50 at 72 h [11]	IC50 [3, 15]	IC50 ([12]; axenic amastigotes)	also measured
O=C(O[C@@H]1Cc2c(O)cc(O)cc2O[C@@H]1c1cc(O)c(O)c(O)c1)c1cc(O)c(O)c(O)c1 [(−)-epigallocatechin gallate, reference compound]						IC50 [1]: 698 nM
O=C(Cn1ccnc1[N+](=O)[O-])NCc1ccccc1 [Benznidazole, reference compound]	0.312 µg/mL (≈ 1.2 µM)					
CCN(CC)CCCC(C)Nc1ccnc2cc(Cl)ccc12 (stereo not drawn) [Chloroquine, reference compound]						IC50 [3, 14]: 0.065 µg/mL (≈ 0.203 µM)
Nc1ncc(/C=C/CNC(=O)c2cc(Br)c(Br)[nH]2)[nH]1 [Compound 1a, oroidin]						IC50 T. cruzi [4]: >30 ^1 μg/mL; IC50 T. b. rhodesiense [5]: 17.30 ^1 μg/mL; IC50 L. donovani [6]: >30 ^1 μg/mL; PfFabI inhibition (in words) [7]: potent PfFAbI inhibitors; IC50 P. falciparum [8]: 3.90 ^1 μg/mL; CC50 Cytotoxicity L6 cells (L6 cells [9]): 88.60 ^1 μg/mL
Nc1ncc(/C=C/CNC(=O)c2cc(Br)c(Br)[nH]2)[nH]1 [Compound 1b, oroidin]						IC50 T. cruzi [4]: >30 ^1 μg/mL; IC50 T. b. rhodesiense [5]: 12.20 ^1 μg/mL; IC50 L. donovani [6]: 15.40 ^1 μg/mL; PfFabI inhibition (in words) [7]: potent PfFAbI inhibitors; IC50 P. falciparum [8]: 7.90 ^1 μg/mL; CC50 Cytotoxicity L6 cells (L6 cells [9]): 76.40 ^1 μg/mL
Nc1ncc(/C=C/CNC(=O)c2cc(Br)c[nH]2)[nH]1 [Compound 2, hymenidin]		77.6 µg/mL (≈ 250 µM)	75.7 µg/mL (≈ 244 µM)	12.5 µg/mL (≈ 40.4 µM)	29.9 µg/mL (≈ 96.3 µM)	
NC1=NC(=O)/C(=C/CCNC(=O)c2cc(Br)c[nH]2)N1 [Compound 3, dispacamide B]	> 90 µg/mL	40.1 µg/mL (≈ 123 µM)	> 90 µg/mL	1.09 µg/mL (≈ 3.34 µM)	> 90 µg/mL	CC50 Cytotoxicity L6 cells (L6 cells [13]): devoid of any cytotoxicity; Selectivity index (CC50 L6 / IC50 parasite) for P. falciparum [3]: > 67.2; IC50 P. falciparum ([3]; erythrocytic stage): 1.34 µg/mL (≈ 4.11 µM); IC50 L. donovani ([12]; axenic amastigotes): completely inactive
NC1=NC(=O)/C(=C/C(O)CNC(=O)c2cc(Br)c[nH]2)N1 (stereo not drawn) [Compound 4, dispacamide D]	> 90 µg/mL	68.2 µg/mL (≈ 199 µM)	> 90 µg/mL	> 20 µg/mL	53.8 µg/mL (≈ 157 µM)	
Nc1ncc(C2=CCNC(=O)c3[nH]c(Br)c(Br)c32)[nH]1 [Compound 5, stevensine]	> 90 µg/mL	25.3 µg/mL (≈ 65.5 µM)	> 90 µg/mL	4.88 µg/mL (≈ 12.6 µM)	75.9 µg/mL (≈ 196 µM)	
O=C1CCNC(=O)c2[nH]c(Br)cc21 [Compound 7, bromoaldisin]	> 90 µg/mL	61.5 µg/mL (≈ 253 µM)	> 90 µg/mL	> 20 µg/mL	> 90 µg/mL	
O=C(O)CC1CNC(=O)c2cc(Br)c(Br)n21 (stereo not drawn) [Compound 8, longamide B]	> 33 µg/mL	1.53 µg/mL (≈ 4.35 µM)	9.94 µg/mL (≈ 28.2 µM)	7.46 µg/mL (≈ 21.2 µM)	3.85 µg/mL (≈ 10.9 µM)	Selectivity index (CC50 L6 / IC50 parasite) for T. brucei rhodesiense [10]: 6.5; IC50 T. cruzi [2]: 33.03 µg/mL (≈ 93.8 µM); Selectivity index (CC50 L6 / IC50 parasite) for L. donovani [12]: 2.6
O=C1NC[C@@H](O)n2c1cc(Br)c2Br [Compound 9, longamide A]	> 90 µg/mL	> 90 µg/mL	> 90 µg/mL	> 20 µg/mL	> 90 µg/mL	
Nc1nc([C@H]2[C@H](CNC(=O)c3cc(Br)c[nH]3)[C@@H](CNC(=O)c3cc(Br)c[nH]3)[C@@H]2c2c[nH]c(N)n2)c[nH]1 [Compound 10, sceptrin]	> 33 µg/mL	9.71 µg/mL (≈ 15.7 µM)	> 90 µg/mL	11.1 µg/mL (≈ 17.9 µM)	51.6 µg/mL (≈ 83.2 µM)	IC50 T. cruzi [2]: 60.08 µg/mL (≈ 96.9 µM)
NCC1C2CN3C(=O)c4cc(Br)c(Br)n4C4N=C(N)NC43C2C2(N=C(N)NC2O)C1Cl (stereo not drawn) [Compound 11, dibromopalau’amine]		0.46 µg/mL (≈ 0.796 µM)				Selectivity index (CC50 L6 / IC50 parasite) for T. brucei rhodesiense [10]: about 10; CC50 at 72 h [11, 16]: 4.46 µg/mL (≈ 7.72 µM); Selectivity index (CC50 L6 / IC50 parasite) for P. falciparum [3]: 3–4; IC50 [3, 14]: 1.48 µg/mL (≈ 2.56 µM); Selectivity index (CC50 L6 / IC50 parasite) for L. donovani [12]: 3–4; IC50 [12]: 1.09 µg/mL (≈ 1.89 µM)
N=C(N)NCCCC[C@H](NC(=O)c1cc(Br)c[nH]1)C(=O)O [Compound 12, bromopyrrolohomoarginin]	> 90 µg/mL	67.1 µg/mL (≈ 186 µM)	62.3 µg/mL (≈ 173 µM)	> 20 µg/mL	34.5 µg/mL (≈ 95.7 µM)	IC50 ([1]; read-out: IC50 PfFabZ (converted)): 777 nM
C[C@]1(COC(=O)c2cc(Br)c[nH]2)C[C@@H](C(=O)O)N=CN1 [Compound 13, manzacidin A]	> 90 µg/mL	73.8 µg/mL (≈ 214 µM)	> 90 µg/mL	> 20 µg/mL	75.8 µg/mL (≈ 220 µM)	
Nc1nc(N)nc(Nc2ccc([As]3SCC(CO)S3)cc2)n1 (stereo not drawn) [Melarsoprol, reference compound]						IC50 [10]: 0.004 µg/mL
CCCCCCCCCCCCCCCCOP(=O)([O-])OCC[N+](C)(C)C [Miltefosine, reference compound]					0.21 µg/mL (≈ 0.515 µM)	IC50 L. donovani ([12]; axenic amastigotes): 0.206 ^c μg/mL
COc1cc([C@@H]2c3cc4c(cc3[C@H](O)[C@H]3COC(=O)[C@H]23)OCO4)cc(OC)c1OC [Podophyllotoxin, reference compound]						CC50 at 72 h [11, 16]: 0.005 µg/mL (≈ 0.0121 µM)
agelongine [Compound 14]						IC50 T. b. rhodesiense ([10]; STIB 900 bloodstream forms): 49.96 µg/mL; CC50 Cytotoxicity L6 cells (L6 cells [13]): >90 µg/mL; IC50 T. cruzi [2]: >90 µg/mL; IC50 P. falciparum ([3]; erythrocytic stage): 11.18 µg/mL; IC50 L. donovani ([12]; axenic amastigotes): 43.22 µg/mL
spongiacidin B [Compound 6]						IC50 T. b. rhodesiense ([10]; STIB 900 bloodstream forms): 13.58 µg/mL and 13.48 µg/mL; CC50 Cytotoxicity L6 cells (L6 cells [13]): 35.6 µg/mL and 35.61 µg/mL; IC50 P. falciparum ([3]; erythrocytic stage): 1.34 µg/mL and 1.09 µg/mL; IC50 L. donovani ([12]; axenic amastigotes): 41.59 µg/mL
